From patent publication US20250381110A1, “SKIN CARE COMPOSITION AND METHOD OF USING THE SAME” (THE PROCTER & GAMBLE COMPANY, priority 2024, published 2025)
Counter-ions that a name gives are not always drawn. Like-named read-outs stand apart in the source and are kept apart here.

Test system: p62-dependent mitophagy
Assay: Luciferase-p62 assay (Fluc-p62 clearance) in mouse embryonic fibroblasts
Format: cell-based
Procedure, shortened: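 MEFs with doxycycline-inducible Fluc-p62; after induction, doxycycline removed and cells treated 48 h with compounds at 10 μM. Fluc-p62 clearance, taken as mitophagy, read by ONE-Glo+Tox luciferase with viability. Vehicle (DMSO) as negative control; activity also expressed relative to rapamycin.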

[1] = Luciferase-p62 assay, mouse embryonic fibroblasts (MEFs), compounds at 10 μM
[2] = percentage of Luciferase-p62 clearance relative to baseline (mean luminescence in the absence of doxycycline induction), MEFs, 10 μM
[3] = percentage of activity relative to rapamycin tested in the same experiment at the same concentration, MEFs, 10 μM

Compound | Mean Luminescence [1] | % Activity over baseline [2] [%] | % Activity relative to Rapamycin [3] [%] | Mean Luminescence | % Activity over baseline (10 µM) [%] | % Activity relative to Rapamycin (10 µM) [%]
CC(C)=CCC[C@@H](C)[C@H]1CC[C@@]2(C)C3=C(CC[C@]12C)[C@@]1(C)CC[C@H](O)C(C)(C)[C@@H]1CC3 [Lanosterol] | 957.65 | 40.82 | 73.54 | – | – | –
CN(CC(=O)O)C(=N)N.O [Creatine monohydrate] | 901.68 | 44.28 | 79.77 | – | – | –
CC1=C2C(=O)O[C@@H](c3ccoc3)[C@]2(C)CCC1 [Fraxinellone] | 972.50 | 39.90 | 71.89 | – | – | –
CCCCCCCCC[C@H](O)CC(=O)CCc1ccc(O)c(OC)c1 [Compound 10-Gingerol] | 520.57 | 67.83 | 122.21 | – | – | –
CN1CCN(c2cc3c(cc2F)c(=O)c(C(=O)O)cn3-c2ccc(F)cc2)CC1 [Difloxacin HCl] | 980.30 | 39.42 | 71.02 | – | – | –
C[C@]12CCC(=O)C=C1CC[C@@H]1[C@@H]2[C@@H](O)C[C@@]2(C)[C@H]1CC[C@]2(O)C(=O)CO [Hydrocortisone] | 801.04 | 50.50 | 90.98 | – | – | –
CC1=C[C@]23C(=O)[C@@H](C=C(CO)[C@@H](O)[C@]2(O)[C@H]1O)[C@H]1[C@@H](C[C@H]3C)C1(C)C [Ingenol] | 930.73 | 42.48 | 76.54 | – | – | –
O=C1C=CC(=O)c2c(O)cccc21 [Juglone] | 894.51 | 44.72 | 80.57 | – | – | –
CC(C)=CCOc1ccc(/C=C/C(=O)c2ccc(OCC=C(C)C)cc2OCC(=O)O)cc1 [Sofalcone] | 760.95 | 52.97 | 95.44 | – | – | –
CC[C@H](N)C(=O)O [L(+)-2-Aminobutyric acid] | 981.68 | 39.33 | 70.87 | – | – | –
N[C@H](Cc1ccccc1)C(=O)O [D-Phenylalanine] | 763.78 | 52.80 | 95.13 | – | – | –
CO[C@@]12[C@H](COC(N)=O)C3=C(C(=O)C(C)=C(N)C3=O)N1C[C@@H]1N[C@@H]12 [Mitomycin C] | 867.02 | 46.42 | 83.63 | – | – | –
Cl.NCCc1ccc(O)c(O)c1 [Dopamine HCl] | – | – | – | 995.96 | 38.45 | 69.28
CC[C@H]1CN2CC[C@H]1C[C@@H]2[C@@H](O)c1ccnc2ccc(OC)cc12 [Hydroquinidine] | 958.47 | 40.77 | 73.45 | – | – | –
CCC(C)n1ncn(-c2ccc(N3CCN(c4ccc(OCC5COC(Cn6cncn6)(c6ccc(Cl)cc6Cl)O5)cc4)CC3)cc2)c1=O (stereo not drawn) [Itraconazole] | 450.47 | 72.16 | 130.02 | – | – | –
CO/N=C(\C(=O)N[C@@H]1C(=O)N2C(C(=O)OC(C)OC(C)=O)=C(COC(N)=O)CS[C@H]12)c1ccco1 (stereo partly drawn) [Cefuroxime axetil] | 958.52 | 40.76 | 73.44 | – | – | –
